Data as given in patent publication US20060084599A1, “Compositions, methods and kits relating to notch signaling” (Maine Medical Center, priority 2003, published 2006).

B1: sDl1: soluble non-transmembrane form (extracellular domain) of the Notch ligand Delta1 (protein)
chain: QVWSSGVFELKLQEFVNKKGLLGNRNCCRGGAGPPPCACRTFFRVCLKHYQASVSPEPPCTYGSAVTPVLGVDSFSLPDGGGADSAFSNPIRFPFGFTWPGTFSLIIEALHTDSPDDLATENPERLISRLATQRHLTVGEEWSQDLHSSGRTDLKYSYRFVCDEHYYGEGCSVFCRPRDDAFGHFTCGERGEKVCNPGWKGPYCTEPICLPGCDEQHGFCDKPGECKCRVGWQGRYCDECIRYPGCLHGTCQQPWQCNCQEGWGGLFCNQDLNYCTHHKPCKNGATCTNTGQGSYTCSCRPGYTGATCELGIDECDPSPCKNGGSCTDLENSYSCTCPPGFYGKICELSAMTCADGPCFNGGRCSDSPDGGYSCRCPVGYSGFNCEKKIDYCSSSPCSNGAKCVDLGDAYLCRCQAGFSGRHCDDNVDDCASSPCANGGTCRDGVNDFSCTCPPGYTGRNCSAPVSRCEHAPCHNGATCHERGHRYVCECARGYGGPNCQFLLPELPPGPAVVDLTEKLEGQGGPFPW
modifications: left off: small tags and cut ends
notes: soluble non-transmembrane form (extracellular domain) of the Notch ligand Delta1

Experiments:
[1] = test system: CSL1-dependent transcription; test: Dual luciferase reporter assay of CSL1-dependent transcription (Example 2); format: cell-based, murine; settings: for CSL1-dependent transcription, level relative to control: thrombin on full-length Jagged1 NIH 3T3 transfectants, sJ1 expression, 10 ng/ml exogenous FGF1
Protocol: Insert-less vector control and sJ1 NIH 3T3 cell transfectants (approximately 3×10^4) were plated on fibronectin-coated (10 μg/cm^2) cell culture dishes and the cells were transiently transfected at approximately 50% confluency with 500 ng of a luciferase construct containing four tandem copies of the CBF1 response element (Small et al., 2001, J. Biol. Chem. 276:32022-32030).
Cotransfection with 100 ng of the TK Renilla (Promega) construct was used as an internal control for transfection efficiency using Fugene 6 (Roche), according to the manufacturer's instructions. Cells were treated with or without 10, […] hours after transfection, harvested 48 hours after the transfection and luciferase/renilla activity measured using the Dual Luciferase Reporter Assay System (Promega). Each experiment was performed in triplicate.

NIH 3T3 cells = test: Cell migration (scratch) assay; format: cell-based, mouse; settings: stable NIH 3T3 cell transfectants expressing the ligand
Protocol: Cell Migration Assay. Approximately 10^5 Sj1 or sDl1 NIH 3T3 cells were plated in 6-well plastic plates (Falcon) DMEM supplemented with 10% (w/v) bovine calf serum (BCS; Hyclone) and after the cells reached approximately 60-70% confluence, the cell monolayer was scratched using a plastic cell scraper. Photomicrographs were taken immediately after the injury and 24 hours and 48 hours later.

[2] = test system: NIH 3T3 cell transfectants; test: Immunofluorescence microscopy of actin stress fibers and focal adhesion sites; format: cell-based, mouse; settings: stable NIH 3T3 cell transfectants expressing the ligand
Protocol: Immunofluorescence Microscopy. Cells were plated on glass coverslips and fixed with 4% (v/v) paraformaldehyde. Actin stress fibers were visualized by FITC-conjugated phalloidin (Sigma), a monoclonal anti-vinculin antibody (Sigma) was used to visualize focal adhesion sites, and a monoclonal anti-β-catenin antibody (BD Transduction Laboratories) and a monoclonal anti-pan cadherin antibody (Sigma) were both used to visualize cell-cell adhesions. Immunofluorescent staining and confocal microscopy were performed as previously described (Small et al., 2001, J. Biol. Chem. 276:32022-32030).

cortactin = test: Phosphotyrosine cortactin immunoblot; format: cell-based, mouse; settings: stable NIH 3T3 cell transfectants expressing the ligand
Protocol: Immunoblot Analysis. Cell lysates from insert-less vector sDl1 and sJ1 NIH 3T3 cell transfectants were prepared in 20 mM Tris HCl, pH 7.5, containing 300 mM sucrose, 60 mM—KCl, 15 mM NaCl, 0.5 mM EDTA, 0.5% (v/v) Triton X-100, 1 mM phenylmethylsulfonyl fluoride, 10 μg/ml leupeptin, 2 μg/ml aprotinin, 0.1% (w/v) deoxycholic acid and 1 mM sodium orthovanadate. Samples of equal protein content were subjected to SDS-PAGE and immunoblot analysis was performed as previously described (Small et al., 2001, J. Biol. Chem. 276:32022-32030) using either a rabbit anti-Src [pY418] phosphospecific antibody (Biosource International), a rabbit anti-total Src antibody (Santa Cruz Biotechnology), a rabbit polyclonal anti-cortactin antibody (a gift from Dr. Xi Zhan, American Red Cross), or an anti-phosphotyrosine antibody (Upstate). Immunoprecipitation of cortactin was performed as previously described (Zhan et al., 1993, J. Biol. Chem. 268:24427-24431).

CBF1-responsive promoter = test: Dual luciferase assay of CSL-dependent transcription (Example 3); format: cell-based, mouse; settings: NIH 3T3 cells and N1IC NIH 3T3 cells expressing the ligand
Protocol: Dual Luciferase Assay. CSL-dependent transcription was quantitated as previously described (Small et al., 2001, J. Biol. Chem. 276:32022-32030; Small et al., 2003, J. Biol. Chem. 278:16405-16413). Briefly, approximately 5×10^4 cells representing insert-less vector control, sDl1, sJ1, dominant-negative Notch1 (dnN1), dominant-negative Notch2 (dnN2) (Small et al., 2001, J. Biol. Chem. 276:32022-32030), sDl1/dnSrc and sJ1/dnSrc stable NIH 3T3 cell transfectants were plated on 12-well plastic plates (Falcon) coated with fibronectin (10 μg/cm^2). The cells were transiently transfected at 60% confluence with 500 ng of the CBF1-responsive Luciferase construct (Small et al., 2001, J. Biol. Chem. 276:32022-32030) and 100 ng of a Renilla SV40 construct (Promega) which was utilized as an internal control for transfection efficiency. Gene Juice (Novagen) was used as a transfection reagent. Some of the samples also contained 200 ng of a DNA construct encoding the truncated intracellular constitutively active form of Notch1 (N1IC) (Small et al., 2001, J. Biol. Chem. 276:32022-32030). […] Individual assays were performed in triplicate and the Luciferase/Renilla activity was measured using Dual-Luciferase Reporter Assay System (Promega) 48 hrs following the transient transfection.

[3] = test system: NIH 3T3 cell transfectants; test: Anchorage-dependent cell growth assay; format: cell-based, mouse; settings: stable NIH 3T3 cell transfectants, 10% BCS
Protocol: Anchorage-Dependent and -Independent Cell Growth Assays. Approximately 3×10^4 cells were plated on fibronectin (10 μg/cm^2)-coated in 12-well cell culture dishes (Falcon) in DMEM containing 10% BCS (v/v) (Hyclone). Three wells of the individual NIH 3T3 cell transfectants were harvested every third day and cell number was quantitated using a hemocytometer. Anchorage-independent cell growth was evaluated by plating in duplicate approximately 1.7×10^3 cells in DMEM containing 0.5% (w/v) agar (Sigma) 10% (v/v) BCS into 5 cm plastic dishes (Falcon) as previously described (Small et al., 2003, J. Biol. Chem. 278:16405-16413).

| Molecule | CSL1-dependent transcription, level relative to control [1] | migratory behavior (NIH 3T3 cells) | F-actin stress fibers and focal adhesion sites [2] | level of tyrosine-phosphorylated cortactin (cortactin) | transactivation of the CBF1-responsive promoter (CBF1-responsive promoter) | growth kinetics at high cell density [3] | effect on Notch-dependent CSL1 activity ([1]; full-length Jagged1 NIH 3T3 cell transfectants) |
| --- | --- | --- | --- | --- | --- | --- | --- |
| sJ1: Soluble Jagged1, amino acid residues about 1 to 1067 (SEQ ID NO:3) of full-length human Jagged1 | approximately 25 % of the control level | exhibited a decrease in their migratory potential | significantly reduced actin stress fibers and focal adhesion sites | increased level | inhibited the transactivation of the CBF1-responsive promoter | impaired contact inhibition of growth |  |
| thrombin | approximately 75 % of the control level |  |  |  |  |  | able to reduce the level of Notch-dependent CSL1 activity in a dose-dependent manner |
| B1 |  | displayed normal motility | normal levels of F-actin stress fibers and focal adhesion sites | decrease | inhibited the transactivation of the CBF1-responsive promoter | impaired contact inhibition of growth |  |
